Experiments:
[1] = Turbidity of 1% ACH solution at varying alkalinity (nephelometric turbidimeter); format: physicochemical; details: 1% solution of ACH
Procedure: A 1% solution of ACH having initial pH of 4.6 was subjected to varying alkalinity by using sodium hydroxide solution, and the turbidity of the solution was measured at varying pH levels using a nephelometric turbidimeter.

[2] = pH and turbidity of 1% soap solution after adding ACH directly or through water-in-oil emulsion; format: physicochemical; details: 60 mg ACH directly added to 1% soap solution (Control)
Procedure: A 1% soap solution was prepared by dissolving the soap in distilled water at 70° C., and then cooling the solution to ambient temperature. The formulation of the soap used is given below: […]
To ascertain the stability of the ACH incorporated in the dispersed phase such as the water-in-oil emulsion in accordance with the invention prepared under Example 2b, the soap solution obtained under Example 2a was used, and the effect of direct addition of ACH and the ACH in the water-in-oil emulsion (Example 2b) of the invention was studied.
For the purpose of the above study, two separate batches of the same soap solution of Example 2a was taken. In one batch 60 mg ACH was directly added, and in the other batch 100 mg ACH was added through the water-in-oil emulsion system as per Example 2b above. The pH levels and the turbidity of the respective solutions containing the active ACH directly introduced (Control) and the active ACH in the water-in-oil emulsion (Example 2b) were measured, and the results are reproduced hereunder in Table II.

Turbidity ([1]; pH 4.6 (initial pH)): 1.3 NTU
Turbidity ([1]; pH 5.7 (sodium hydroxide)): 2.6 NTU
Turbidity ([1]; pH 7.5 (sodium hydroxide)): 504 NTU
Turbidity ([1]; pH 9.6 (sodium hydroxide)): 522 NTU
Turbidity ([1]; pH 10.6 (sodium hydroxide)): 884 NTU
pH ([2]; soap solution alone 10.14): 9.89
Turbidity ([2]; soap solution alone 205): 950
Substance: Aluminum Chlorohydrate [ACH]

From patent US20060003907A1, “Detergent composition with benefit agents” (Unilever Home & Personal Care USA, Division of Conopco, Inc., priority 2003, published 2006)
